According to patent US6376497B1, “Antifungal azole derivatives having a fluorinated vinyl group and process for preparing same” (Korea Research Institute of Chemical Technology, priority 1999, dated 2002):

Columns and labels:
Test in all cases: In vitro antifungal activity, microbroth dilution MIC
Type in all cases: cell-based
[1] = test system: Cryptococcus neoformans B. 42419; conditions: 4 to 48 hours; for Minimal inhibitory concentration(MIC), Cry. neoformans B. 42419: RPMI-1640, 35° C., no growth observed
Method in brief: (§1)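 Broth microdilution adapted from NCCLS M27, in RPMI-1640 with 0.165 M MOPS, pH 7.0. Yeast or mould inoculum at 2×10^3 CFU/ml was mixed 1:1 with DMSO-derived compound solutions (200 to 0.10 μg/ml before mixing) and incubated at 35 °C for 4 to 48 h. MIC was the concentration showing no growth.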

[2] = test system: Trichophyton mentagrophytes B. 32663; conditions: 4 to 48 hours; for Minimal inhibitory concentration(MIC), T. mentagrophytes B. 32663: RPMI-1640, 35° C., no growth observed
Method in brief: as §1

[3] = test system: Torulopsis glabrata B. 16205; conditions: 4 to 48 hours; for Minimal inhibitory concentration(MIC), T. glabrata B. 16205: RPMI-1640, 35° C., no growth observed
Method in brief: as §1

[4] = test system: Candida tropicalis A. 13803; conditions: 4 to 48 hours; for Minimal inhibitory concentration(MIC), C. tropicalis A. 13803: RPMI-1640, 35° C., no growth observed
Method in brief: as §1

[5] = test system: Candida pseudotropicalis K. 11658; conditions: 4 to 48 hours; for Minimal inhibitory concentration(MIC), C. pseudotropicalis K. 11658: RPMI-1640, 35° C., no growth observed
Method in brief: as §1

[6] = test system: Aspergillus niger A. 16404; conditions: 4 to 48 hours; for Minimal inhibitory concentration(MIC), A. niger A. 16404: RPMI-1640, 35° C., no growth observed
Method in brief: as §1

[7] = test system: Cryptococcus neoformans IFM. 40092; conditions: 4 to 48 hours; for Minimal inhibitory concentration(MIC), Cry. neoformans IFM. 40092: RPMI-1640, 35° C., no growth observed
Method in brief: as §1

[8] = test system: Cryptococcus neoformans A. 34144; conditions: 4 to 48 hours; for Minimal inhibitory concentration(MIC), Cry. neoformans A. 34144: RPMI-1640, 35° C., no growth observed
Method in brief: as §1

[9] = test system: Candida parapsitosis A. 7330; conditions: 4 to 48 hours; for Minimal inhibitory concentration(MIC), C. parapsitosis A. 7330: RPMI-1640, 35° C., no growth observed
Method in brief: as §1

[10] = test system: Trichophyton mentagrophytes A. 9129; conditions: 4 to 48 hours; for Minimal inhibitory concentration(MIC), T. mentagrophytes A. 9129: RPMI-1640, 35° C., no growth observed
Method in brief: as §1

Candida krusei K. 11655 = conditions: 4 to 48 hours; for Minimal inhibitory concentration(MIC), C. krusei K. 11655: RPMI-1640, 35° C., no growth observed
Method in brief: as §1

[11] = test system: Candida albicans A. 10231; conditions: 4 to 48 hours; for Minimal inhibitory concentration (MIC): C. albicans A. 10231, RPMI-1640, 35° C.; for Minimal inhibitory concentration(MIC), C. albicans A. 10231: RPMI-1640, 35° C., no growth observed
Method in brief: as §1

[12] = test system: Aspergillus furnigatus B. 19119; conditions: 4 to 48 hours; for Minimal inhibitory concentration(MIC), A furnigatus B. 19119: RPMI-1640, 35° C., no growth observed
Method in brief: as §1

[13] = test system: Candida albicans IFO. 1385; conditions: 4 to 48 hours; for Minimal inhibitory concentration(MIC), C. albicans IFO. 1385: RPMI-1640, 35° C., no growth observed
Method in brief: as §1

Candida albicans C1-2 = conditions: 4 to 48 hours; for Minimal inhibitory concentration (MIC): C. albicans C1-2, RPMI-1640, 35° C.; for Minimal inhibitory concentration(MIC), C. albicans C1-2: RPMI-1640, 35° C., no growth observed
Method in brief: as §1

| Minimal inhibitory concentration(MIC), Cry. neoformans B. 42419 [1] | Minimal inhibitory concentration(MIC), T. mentagrophytes B. 32663 [2] | Minimal inhibitory concentration(MIC), T. glabrata B. 16205 [3] | Minimal inhibitory concentration(MIC), C. tropicalis A. 13803 [4] | Minimal inhibitory concentration(MIC), C. pseudotropicalis K. 11658 [5] | Minimal inhibitory concentration(MIC), A. niger A. 16404 [6] | Minimal inhibitory concentration(MIC), Cry. neoformans IFM. 40092 [7] | Minimal inhibitory concentration(MIC), Cry. neoformans A. 34144 [8] | Minimal inhibitory concentration(MIC), C. parapsitosis A. 7330 [9] | Minimal inhibitory concentration(MIC), T. mentagrophytes A. 9129 [10] | Minimal inhibitory concentration(MIC), C. krusei K. 11655 (Candida krusei K. 11655) | Minimal inhibitory concentration (MIC) [11] | Minimal inhibitory concentration(MIC), A furnigatus B. 19119 [12] | Minimal inhibitory concentration(MIC), C. albicans IFO. 1385 [13] | Minimal inhibitory concentration (MIC) (Candida albicans C1-2) | Minimal inhibitory concentration(MIC), C. albicans A. 10231 [11] | Minimal inhibitory concentration(MIC), C. albicans C1-2 (Candida albicans C1-2) | Compound | also measured |
| --- | --- | --- | --- | --- | --- | --- | --- | --- | --- | --- | --- | --- | --- | --- | --- | --- | --- | --- |
| 3.13 µg/mL | 12.5 µg/mL | 50.0 µg/mL | >100 µg/mL | 25.0 µg/mL | >100 µg/mL | 0.78 µg/mL | 6.25 µg/mL | >100 µg/mL | 12.5 µg/mL | 100 µg/mL | 100 µg/mL | >100 µg/mL | 12.5 µg/mL | 100 µg/mL |  |  | COc1ccc(C=C(F)OCC2COC(Cn3cncn3)(c3ccc(Cl)cc3Cl)O2)cc1 (mixture of isomers) [Ex. 74] |  |
| 3.13 µg/mL | 25.0 µg/mL | 100 µg/mL | >100 µg/mL | >100 µg/mL | >100 µg/mL | 0.78 µg/mL | 3.13 µg/mL | >100 µg/mL | 50.0 µg/mL | >100 µg/mL |  | >100 µg/mL | 3.13 µg/mL |  | 100 µg/mL | >100 µg/mL | FC(Oc1ccc(OCC2COC(Cn3ccnc3)(c3ccc(Cl)cc3Cl)O2)cc1)=C(c1cc(Cl)cc(Cl)c1)C(F)(F)F (mixture of isomers) [Ex. 104] |  |
|  |  |  |  |  |  |  |  |  |  |  | 12.5 µg/mL |  |  | 25.0 µg/mL |  |  | Cc1cccc(C(=C(F)OCC2COC(Cn3ccnc3)(c3ccc(F)cc3F)O2)C(F)(F)F)c1 (mixture of isomers) [Ex. 53] | Minimal inhibitory concentration (MIC) ([1]; Cry. neoformans B. 42419, RPMI-1640, 35° C.): 0.78 µg/mL; Minimal inhibitory concentration (MIC) ([2]; T. mentagrophytes B. 32663, RPMI-1640, 35° C.): 1.56 µg/mL; Minimal inhibitory concentration (MIC) ([3]; T. glabrata B. 16205, RPMI-1640, 35° C.): 6.25 µg/mL; Minimal inhibitory concentration (MIC) ([4]; C. tropicalis A. 13803, RPMI-1640, 35° C.): 100 µg/mL; Minimal inhibitory concentration (MIC) ([5]; C. pseudotropicalis K. 11658, RPMI-1640, 35° C.): >100 µg/mL; Minimal inhibitory concentration (MIC) ([6]; A. niger A. 16404, RPMI-1640, 35° C.): 25.0 µg/mL; Minimal inhibitory concentration (MIC) ([7]; Cry. neoformans IFM. 40092, RPMI-1640, 35° C.): ≦10.10 μg/ml; Minimal inhibitory concentration (MIC) ([8]; Cry. neoformans A. 34144, RPMI-1640, 35° C.): 1.56 µg/mL; Minimal inhibitory concentration (MIC) ([9]; C. parapsitosis A. 7330, RPMI-1640, 35° C.): >100 µg/mL; Minimal inhibitory concentration (MIC) ([10]; T. mentagrophytes A. 9129, RPMI-1640, 35° C.): 3.13 µg/mL; Minimal inhibitory concentration (MIC) (Candida krusei K. 11655; C. krusei K. 11655, RPMI-1640, 35° C.): >100 µg/mL; Minimal inhibitory concentration (MIC) ([12]; A furnigatus B. 19119, RPMI-1640, 35° C.): 3.13 µg/mL; Minimal inhibitory concentration (MIC) ([13]; C. albicans IFO. 1385, RPMI-1640, 35° C.): 0.78 µg/mL |
| 3.13 µg/mL | 12.5 µg/mL | 25.0 µg/mL | >100 µg/mL | >100 µg/mL | >100 µg/mL | 0.78 µg/mL | 3.13 µg/mL | >100 µg/mL | 25.0 µg/mL | >100 µg/mL |  | 50.0 µg/mL | 3.13 µg/mL |  | 25.0 µg/mL | 50.0 µg/mL | FC(Oc1ccc(OCC2COC(Cn3ccnc3)(c3ccc(Cl)cc3Cl)O2)cc1)=C(c1cccc(Cl)c1)C(F)(F)F (mixture of isomers) [Ex. 101] |  |
